Tests used:
[1] = Cytotoxicity assay, proliferation of exponentially growing MDBK cells (MTS/PMS); type: cell-based, bovine; conditions: bovine
Protocol: Assays were carried out, as described previously.

BVDV NADL virus = test: CPE-based antiviral assay, BVDV NADL in MDBK cells (MTS/PMS); conditions: for EC50: Bovine viral diarrhea virus isolates and strains, MDBK, 72 h; for S.I.: selectivity index, CC50 vs EC50
[2] = sheet CSFCI#, potency relative to TO505-6180 (EC50 0.07 µM)
[3] = sheet CSFCII#, potency relative to TO502-2403 (EC50 0.2 µM)

Row | SMILES | CC50 at 5 days [1] | EC50 (BVDV NADL virus) | S.I. (BVDV NADL virus) | fold increase (BVDV NADL virus; [2]) | fold increase (BVDV NADL virus; [3])
1 | Cc1ccc2nc(NC(=O)c3cccc4ccccc34)sc2c1 [CSFC-24, Cc1ccc2nc(NC(=O)c3cccc4ccccc43)sc2c1] | > 100 µM | > 100 µM | 1 | 0.0007 | –
2 | Cc1cc2nc(NC(=O)c3cc(-c4ccccc4)nc4ccccc34)sc2cc1C [CSFC-11, Cc1cc2nc(NC(=O)c3cc(nc4ccccc43)c3ccccc3)sc2cc1C] | > 100 µM | 0.3 µM | 333 | 0.23 | –
3 | O=C(Nc1nc2c(F)cc(Br)cc2s1)c1cc(-c2ccccc2)nc2ccccc12 [CSFC-147, Fc1cc(Br)cc2sc(nc12)NC(=O)c1cc(nc2ccccc21)c1ccccc1] | 6.2 ± 1.1 µM | 0.01 µM | – | 7.00 | –
4 | Cc1ccc2sc(NC(=O)c3cc(-c4ccccc4)nc4ccccc34)nc2c1C [CSFC-145, Cc1c(C)ccc2sc(nc12)NC(=O)c1cc(nc2ccccc21)c1ccccc1] | > 100 µM | < 0.02 µM | – | – | –
5 | Cc1cccc2sc(NC(=O)c3cc(-c4ccsc4)nc4ccccc34)nc12 [CSFC-78, Cc1cccc2sc(nc12)NC(=O)c4cc(nc3ccccc34)c5ccsc5] | > 100 µM | 0.1 µM | 1000 | – | 2.00
6 | O=C(Nc1ccccn1)c1cc(-c2ccccc2)nc2ccccc12 [CSFC-6, O=C(Nc1ccccn1)c1cc(nc2ccccc21)c1ccccc1] | > 100 µM | > 100 µM | 1 | 0.0007 | –
7 | Cc1ccc2nc(N(C)C(=O)c3cc(-c4ccccc4)nc4ccccc34)sc2c1 [CSFC-21, O=C(c1cc(nc2ccccc21)c1ccccc1)N(C)c1nc2ccc(C)cc2s1] | > 100 µM | > 100 µM | 1 | 0.0007 | –
8 | Cc1ccc2nc(NC(=O)c3cc[n+]([O-])cc3)sc2c1 [CSFC-27, [O-][n+]1ccc(cc1)C(=O)Nc1nc2ccc(C)cc2s1] | > 100 µM | > 100 µM | 1 | 0.0007 | –
9 | O=C(Nc1nc2cc(F)ccc2s1)c1cc(-c2ccco2)nc2ccccc12 [CSFC-54, Fc1cc2nc(sc2cc1)NC(=O)c4cc(nc3ccccc34)c5ccco5] | > 100 µM | 100 µM | 1 | – | 0.002
10 | O=C(Nc1nc2c(C(F)(F)F)cccc2s1)c1cc(-c2ccccc2)nc2ccccc12 [CSFC-148, FC(F)(F)c1cccc2sc(nc12)NC(=O)c1cc(nc2ccccc21)c1ccccc1] | 20 ± 1.6 µM | 0.3 µM | 67 | 0.23 | –
11 | O=C(Nc1ccn(-c2ccccc2)n1)c1cc(-c2ccc(F)cc2)nc2ccc(F)cc12 [CSFC-123, Fc1ccc(cc1)c3nc2ccc(F)cc2c(c3)C(=O)Nc4ccn(n4)c5ccccc5] | > 100 µM | 0.3 µM | 333 | – | 0.67
12 | Cc1ccc(-c2cc(C(=O)Nc3ccn(-c4ccccc4)n3)c3ccccc3n2)cc1 [CSFC-112, Cc1ccc(cc1)c3nc2ccccc2c(c3)C(=O)Nc4ccn(n4)c5ccccc5] | > 100 µM | 0.1 µM | 1000 | – | 2.00
13 | O=C(Nc1nc2cc(Cl)ccc2s1)c1cc(-c2ccco2)nc2ccccc12 [CSFC-55, Clc1cc2nc(sc2cc1)NC(=O)c4cc(nc3ccccc34)c5ccco5] | > 100 µM | 100 µM | 1 | – | 0.002
14 | O=C(Nc1ccn(-c2cc(F)cc(F)c2)n1)c1cc(-c2ccccc2)nc2ccccc12 [CSFC-144, Fc1cc(F)cc(c1)n2ccc(n2)NC(=O)c4cc(nc3ccccc34)c5ccccc5] | > 100 µM | 0.02 µM | – | – | 10.00
15 | COc1cccc(NC(=O)c2cc(-c3ccccc3)nc3ccccc23)c1 [CSFC-138, COc1cccc(c1)NC(=O)c1cc(nc2ccccc12)c1ccccc1] | > 100 µM | > 100 µM | 1 | 0.0007 | –
16 | O=C(Nc1ccn(-c2ccccc2)n1)c1cc(-c2cccs2)nc2c(F)cccc12 [CSFC-100, O=C(Nc1ccn(n1)c2ccccc2)c4cc(nc3c(F)cccc34)c5cccs5] | > 100 µM | 0.05 µM | 2000 | – | 4.00
17 | COc1ccc(-c2cc(C(=O)Nc3nc4c(C)cccc4s3)c3ccccc3n2)cc1F [CSFC-119, COc1ccc(cc1F)c3nc2ccccc2c(c3)C(=O)Nc4nc5c(C)cccc5s4] | > 100 µM | 2.5 µM | 40 | – | 0.08
18 | COc1ccc2nc(NC(=O)c3cc(-c4ccco4)nc4ccc(C)cc34)sc2c1 [CSFC-73, O=C(c2cc(nc1ccc(cc12)C)c3ccco3)Nc4nc5ccc(cc5s4)OC] | > 100 µM | 11.5 µM | 9 | – | 0.0174
19 | Cc1cc(C)c2nc(-c3ccco3)cc(C(=O)Nc3nc4c(C)cccc4s3)c2c1 [CSFC-75, Cc5cc1c(nc(cc1C(=O)Nc2nc3c(C)cccc3s2)c4ccco4)c(C)c5] | > 100 µM | 5.3 µM | 19 | – | 0.0377
20 | Cc1cccc2sc(NC(=O)c3cc(-c4ccc(Cl)s4)nc4ccccc34)nc12 [CSFC-48, Clc1ccc(s1)c3nc2ccccc2c(c3)C(=O)Nc4nc5c(C)cccc5s4] | 14 ± 0.7 µM | 14 µM | 1 | – | 0.0143
21 | Cc1sc(NC(=O)c2cc(-c3ccccc3)nc3ccccc23)nc1-c1ccccc1 [CSFC-110, O=C(Nc2nc(c1ccccc1)c(C)s2)c4cc(nc3ccccc34)c5ccccc5] | > 100 µM | 0.3 µM | 333 | – | 0.67
22 | O=C(Nc1ccn(-c2ccccc2)n1)c1cc(-c2ccncc2)nc2ccccc12 [CSFC-121, O=C(Nc1ccn(n1)c1ccccc1)c1cc(nc2ccccc21)c1ccncc1] | > 100 µM | 100 µM | 1 | – | 0.002
23 | O=C(Nc1ccn(-c2ccccc2)n1)c1cc(-c2cccs2)nc2ccccc12 [CSFC-47, O=C(Nc1ccn(n1)c2ccccc2)c4cc(nc3ccccc34)c5cccs5] | > 100 µM | 1.7 µM | 59 | – | 0.12
24 | COc1cccc2sc(NC(=O)c3cc(-c4ccccc4)nc4ccccc34)nc12 [CSFC-19, COc1cccc2sc(nc12)NC(=O)c1cc(nc2ccccc21)c1ccccc1] | > 100 µM | 0.4 µM | 250 | 0.18 | –
25 | O=C(Nc1ccn(-c2ccc(F)cc2)n1)c1cc(-c2ccccc2)nc2ccccc12 [CSFC-128, Fc1ccc(cc1)n2ccc(n2)NC(=O)c4cc(nc3ccccc34)c5ccccc5] | > 100 µM | 0.5 µM | 200 | – | 0.40
26 | Cc1cccc2sc(NC(=O)c3cc(-c4ccco4)nc4ccc(C(F)(F)OF)cc34)nc12 [CSFC-79, FC(F)(OF)c1cc2c(cc1)nc(cc2C(=O)Nc1nc2c(C)cccc2s1)c1ccco1] | > 100 µM | 2.5 µM | 40 | – | 0.08
27 | O=C(Nc1ccn(-c2ccccc2)n1)c1cc(-c2cccs2)nc2ccc(I)cc12 [CSFC-97, O=C(Nc1ccn(n1)c2ccccc2)c4cc(nc3ccc(I)cc34)c5cccs5] | > 100 µM | 4.1 µM | 24 | – | 0.05
28 | O=C(Nc1cc(-c2ccc(Br)cc2)on1)c1cc(-c2ccccc2)nc2ccccc12 [CSFC-43, O=C(Nc1cc(on1)c2ccc(Br)cc2)c4cc(nc3ccccc34)c5ccccc5] | > 100 µM | 4 µM | 26 | – | 0.05
29 | COc1ccc(NC(=O)c2cc(-c3ccccc3)nc3ccccc23)cc1 [CSFC-139, COc1ccc(cc1)NC(=O)c1cc(nc2ccccc12)c1ccccc1] | > 100 µM | > 100 µM | 1 | 0.0007 | –
30 | O=C(Nc1nnc(-c2ccccc2)s1)c1cc(-c2cccs2)nc2ccc(F)cc12 [CSFC-106, O=C(Nc1nnc(s1)c2ccccc2)c4cc(nc3ccc(F)cc34)c5cccs5] | > 100 µM | 2.3 µM | 43 | – | 0.09

Source: paper PMC7144022, “Quinolinecarboxamides Inhibit the Replication of the Bovine Viral Diarrhea Virus by Targeting a Hot Spot for the Inhibition of Pestivirus Replication in the RNA-Dependent RNA Polymerase” (Molecules, 2020)
